Measured values reported in patent US9186391B2, “Cyclic peptide inhibitors of lysine-specific demethylase 1” (MUSC FOUNDATION FOR RESEARCH DEVELOPMENT, priority 2013, dated 2015).
Read-outs that look alike come from different tables or passages of the source.

What was measured:
Calu-6 lung tumor line = test: cells; type: cell-based, human; conditions: MTS assay, 72 hours, read-out: IC50 growth inhibition in Calu-6 cells
MCF-7 breast tumor line = type: cell-based; conditions: MTS assay, 72 hours; read-out: IC50 growth inhibition in MCF-7 cells
MAO-A = biological target: T1, MAO-A (Homo sapiens, UniProt P21397); test: Inhibition of monoamine oxidase A in vitro; type: biochemical; conditions: read-out: IC50 for inhibition against MAO-A
T1 sequence (P21397 1-527): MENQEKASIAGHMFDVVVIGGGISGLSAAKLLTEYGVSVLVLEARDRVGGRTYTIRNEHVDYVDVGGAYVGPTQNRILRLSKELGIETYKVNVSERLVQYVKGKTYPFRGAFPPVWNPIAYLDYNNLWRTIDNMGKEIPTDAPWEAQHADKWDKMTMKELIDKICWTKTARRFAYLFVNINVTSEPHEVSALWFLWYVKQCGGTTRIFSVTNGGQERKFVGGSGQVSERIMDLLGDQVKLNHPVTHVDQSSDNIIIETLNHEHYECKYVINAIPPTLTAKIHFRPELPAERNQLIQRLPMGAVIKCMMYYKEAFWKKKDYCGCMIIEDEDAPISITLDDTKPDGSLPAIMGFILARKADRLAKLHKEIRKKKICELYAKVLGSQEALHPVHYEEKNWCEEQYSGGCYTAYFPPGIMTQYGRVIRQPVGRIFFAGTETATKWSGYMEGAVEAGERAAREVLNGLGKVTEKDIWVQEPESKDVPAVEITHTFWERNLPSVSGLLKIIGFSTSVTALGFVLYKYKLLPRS
From the text: (§1) Each data point is the average of three determinations±standard error.

MAO-B = biological target: T2, MAO-B (Homo sapiens, UniProt P27338); test: Inhibition of monoamine oxidase B in vitro; type: biochemical; conditions: read-out: IC50 for inhibition against MAO-B
T2 sequence (P27338 1-520): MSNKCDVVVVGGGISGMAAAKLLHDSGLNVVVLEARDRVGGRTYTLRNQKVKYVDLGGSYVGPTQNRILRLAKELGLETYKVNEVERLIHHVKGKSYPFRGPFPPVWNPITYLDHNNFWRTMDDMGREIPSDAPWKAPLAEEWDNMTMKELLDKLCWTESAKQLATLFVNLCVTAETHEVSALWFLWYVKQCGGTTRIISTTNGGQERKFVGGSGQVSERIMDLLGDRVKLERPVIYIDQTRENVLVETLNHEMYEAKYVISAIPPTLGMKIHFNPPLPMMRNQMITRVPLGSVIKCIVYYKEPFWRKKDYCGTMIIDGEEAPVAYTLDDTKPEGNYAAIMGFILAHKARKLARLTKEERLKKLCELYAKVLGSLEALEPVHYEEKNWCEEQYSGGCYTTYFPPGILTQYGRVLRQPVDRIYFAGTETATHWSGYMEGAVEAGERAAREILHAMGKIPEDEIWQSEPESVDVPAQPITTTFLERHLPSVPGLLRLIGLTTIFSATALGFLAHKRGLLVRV
From the text: as §1

IC50 (Calu-6 lung tumor line; Homo sapiens, Calu-6) [µM] | Compound | IC50 (MCF-7 breast tumor line) [µM] | IC50 (MAO-A) [µM] | IC50 (Calu-6 lung tumor line) [µM] | IC50 (MAO-B) [µM]
10.9 | N=C(NCCCNCCCCCCCNCCCNC(=N)NC(=N)NCCC(c1ccccc1)c1ccccc1)NC(=N)NCCC(c1ccccc1)c1ccccc1 [compound 3, verlindamycin, reference compound] | – | – | – | –
– | CSCC[C@H](NC(=O)[C@@H](NC(=O)[C@H](CCCNC(=N)N)NC(=O)[C@H](C)N)[C@@H](C)O)C(=O)N[C@H]1CCCCNC(=O)CC[C@@H](C(=O)N[C@H](C(=O)NCC(=O)NCC(=O)N[C@@H](CCCCN)C(=O)N[C@@H](C)C(=O)N2CCC[C@H]2C(=O)N[C@@H](CCCNC(=N)N)C(=O)N[C@@H](CCCCN)C(=O)N[C@@H](CCC(N)=O)C(=O)N[C@@H](CC(C)C)C(=O)N[C@@H](C)C(N)=O)[C@@H](C)O)NC(=O)[C@H](CCCCN)NC(=O)[C@H](CCCNC(=N)N)NC(=O)[C@H](C)NC(=O)[C@H]([C@@H](C)O)NC1=O [compound 11] | 157 | > 100 | 125 | > 100
